Measurements from ChEMBL document CHEMBL1145498, “A systematic interaction map of validated kinase inhibitors with Ser/Thr kinases” (Proc Natl Acad Sci U S A, 2007).

Experiments:
[1] = target: Serine/threonine-protein kinase pim-3 (Homo sapiens) (UniProt Q86V86)
[2] = target: T1, Serine/threonine-protein kinase VRK3 (Homo sapiens) (UniProt Q8IV63)
T1 sequence (whole entry): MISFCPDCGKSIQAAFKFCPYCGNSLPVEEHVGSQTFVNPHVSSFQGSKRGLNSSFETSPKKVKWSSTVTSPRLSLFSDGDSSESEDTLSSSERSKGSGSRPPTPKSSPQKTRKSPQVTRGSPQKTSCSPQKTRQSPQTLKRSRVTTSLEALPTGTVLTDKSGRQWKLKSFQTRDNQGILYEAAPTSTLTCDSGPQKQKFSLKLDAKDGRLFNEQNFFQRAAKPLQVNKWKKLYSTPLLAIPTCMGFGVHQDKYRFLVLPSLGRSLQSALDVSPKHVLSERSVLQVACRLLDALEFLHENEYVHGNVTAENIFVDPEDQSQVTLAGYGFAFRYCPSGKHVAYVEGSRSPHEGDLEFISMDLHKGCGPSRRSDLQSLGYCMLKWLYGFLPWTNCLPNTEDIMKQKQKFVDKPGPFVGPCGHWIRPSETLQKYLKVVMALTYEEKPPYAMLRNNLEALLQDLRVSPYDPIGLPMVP

[3] = target: T2, Serine/threonine-protein kinase 17A (Homo sapiens) (UniProt Q9UEE5)
T2 sequence (whole entry): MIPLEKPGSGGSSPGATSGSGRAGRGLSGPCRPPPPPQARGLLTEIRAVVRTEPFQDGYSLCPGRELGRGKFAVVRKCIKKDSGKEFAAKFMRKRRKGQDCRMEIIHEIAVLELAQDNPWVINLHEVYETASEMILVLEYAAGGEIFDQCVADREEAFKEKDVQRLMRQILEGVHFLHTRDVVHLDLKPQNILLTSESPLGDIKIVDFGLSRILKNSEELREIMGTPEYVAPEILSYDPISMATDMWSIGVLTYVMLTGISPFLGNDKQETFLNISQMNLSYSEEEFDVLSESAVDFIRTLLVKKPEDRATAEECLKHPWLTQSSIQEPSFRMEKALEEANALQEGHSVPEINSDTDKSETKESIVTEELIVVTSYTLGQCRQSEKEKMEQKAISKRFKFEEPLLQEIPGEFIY

[4] = target: Serine/threonine-protein kinase pim-1 (Homo sapiens) (UniProt P11309)
[5] = target: T3, Serine/threonine-protein kinase Nek2 (Homo sapiens) (UniProt P51955)
T3 sequence (whole entry): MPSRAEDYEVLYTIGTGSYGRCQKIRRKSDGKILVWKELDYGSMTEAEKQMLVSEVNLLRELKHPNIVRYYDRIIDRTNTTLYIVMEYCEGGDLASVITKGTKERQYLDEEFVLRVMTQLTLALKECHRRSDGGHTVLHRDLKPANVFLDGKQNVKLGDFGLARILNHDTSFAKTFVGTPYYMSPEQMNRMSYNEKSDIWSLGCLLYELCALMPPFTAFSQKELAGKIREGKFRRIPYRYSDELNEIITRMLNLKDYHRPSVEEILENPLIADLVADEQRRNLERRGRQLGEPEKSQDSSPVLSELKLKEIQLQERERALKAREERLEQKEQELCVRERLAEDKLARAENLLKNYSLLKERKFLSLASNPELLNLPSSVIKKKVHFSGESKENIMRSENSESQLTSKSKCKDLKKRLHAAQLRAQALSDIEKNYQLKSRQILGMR

[6] = target: Serine/threonine-protein kinase 10 (Homo sapiens) (UniProt O94804)
Serine/threonine-protein kinase 10 (Homo sapiens), sequence (O94804 whole entry, looked up): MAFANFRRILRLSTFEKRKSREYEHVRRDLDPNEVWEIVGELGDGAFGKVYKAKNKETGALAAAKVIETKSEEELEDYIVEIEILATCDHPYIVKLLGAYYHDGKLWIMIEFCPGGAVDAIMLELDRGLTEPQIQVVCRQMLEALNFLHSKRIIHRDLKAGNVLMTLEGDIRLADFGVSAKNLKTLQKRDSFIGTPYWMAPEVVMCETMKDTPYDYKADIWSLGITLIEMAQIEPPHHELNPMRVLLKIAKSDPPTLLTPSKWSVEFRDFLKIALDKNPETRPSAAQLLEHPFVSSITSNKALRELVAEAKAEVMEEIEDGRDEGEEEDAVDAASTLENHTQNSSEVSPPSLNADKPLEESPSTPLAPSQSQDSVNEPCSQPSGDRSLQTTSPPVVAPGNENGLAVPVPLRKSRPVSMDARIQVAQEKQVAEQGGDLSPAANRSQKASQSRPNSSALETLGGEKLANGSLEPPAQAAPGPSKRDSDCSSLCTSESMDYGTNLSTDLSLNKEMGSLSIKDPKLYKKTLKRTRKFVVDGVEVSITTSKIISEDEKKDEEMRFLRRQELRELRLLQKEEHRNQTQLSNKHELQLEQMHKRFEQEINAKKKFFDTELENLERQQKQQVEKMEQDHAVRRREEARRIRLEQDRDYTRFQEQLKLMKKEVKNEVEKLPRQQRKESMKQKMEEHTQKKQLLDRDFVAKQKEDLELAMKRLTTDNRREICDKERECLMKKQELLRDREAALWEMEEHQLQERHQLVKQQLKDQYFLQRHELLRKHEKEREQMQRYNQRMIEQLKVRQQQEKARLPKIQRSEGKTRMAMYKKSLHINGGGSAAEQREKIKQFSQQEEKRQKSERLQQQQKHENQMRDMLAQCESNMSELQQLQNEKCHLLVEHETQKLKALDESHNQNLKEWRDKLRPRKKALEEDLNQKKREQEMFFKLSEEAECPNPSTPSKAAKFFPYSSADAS

[7] = target: Ribosomal protein S6 kinase alpha-3 (Homo sapiens) (UniProt P51812)
Ribosomal protein S6 kinase alpha-3 (Homo sapiens), sequence (P51812 whole entry): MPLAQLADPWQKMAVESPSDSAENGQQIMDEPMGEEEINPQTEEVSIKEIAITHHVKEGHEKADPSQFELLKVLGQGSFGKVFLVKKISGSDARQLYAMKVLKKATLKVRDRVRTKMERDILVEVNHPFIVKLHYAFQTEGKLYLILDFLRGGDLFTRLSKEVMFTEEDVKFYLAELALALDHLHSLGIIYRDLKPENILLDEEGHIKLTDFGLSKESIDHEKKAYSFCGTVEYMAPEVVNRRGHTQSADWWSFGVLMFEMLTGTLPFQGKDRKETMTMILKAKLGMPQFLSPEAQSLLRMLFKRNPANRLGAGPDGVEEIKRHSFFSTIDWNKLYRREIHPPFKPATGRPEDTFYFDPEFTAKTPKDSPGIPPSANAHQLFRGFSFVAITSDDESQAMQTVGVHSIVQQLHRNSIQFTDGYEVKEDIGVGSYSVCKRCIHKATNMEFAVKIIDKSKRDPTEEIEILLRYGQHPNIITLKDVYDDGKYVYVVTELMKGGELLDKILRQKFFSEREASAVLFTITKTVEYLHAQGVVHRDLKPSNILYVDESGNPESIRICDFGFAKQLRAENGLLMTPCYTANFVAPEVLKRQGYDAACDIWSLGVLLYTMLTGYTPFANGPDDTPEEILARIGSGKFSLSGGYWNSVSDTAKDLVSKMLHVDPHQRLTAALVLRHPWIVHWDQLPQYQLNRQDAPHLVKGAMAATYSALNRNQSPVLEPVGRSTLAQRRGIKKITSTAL

[8] = target: STE20-like serine/threonine-protein kinase (Homo sapiens) (UniProt Q9H2G2)
[9] = target: Serine/threonine-protein kinase pim-2 (Homo sapiens, UniProt Q9P1W9)
Serine/threonine-protein kinase pim-2, sequence (Q9P1W9 whole entry, looked up): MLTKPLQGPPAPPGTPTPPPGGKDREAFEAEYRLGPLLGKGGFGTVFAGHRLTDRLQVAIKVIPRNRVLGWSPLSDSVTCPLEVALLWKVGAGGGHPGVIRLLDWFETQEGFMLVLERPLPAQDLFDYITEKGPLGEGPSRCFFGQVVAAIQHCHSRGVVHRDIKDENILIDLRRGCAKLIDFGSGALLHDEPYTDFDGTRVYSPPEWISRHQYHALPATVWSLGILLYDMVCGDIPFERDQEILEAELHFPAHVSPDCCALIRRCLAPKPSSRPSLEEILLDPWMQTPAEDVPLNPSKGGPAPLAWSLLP

[10] = target: Serine/threonine-protein kinase VRK2 (Homo sapiens) (UniProt Q86Y07)
Serine/threonine-protein kinase VRK2 (Homo sapiens), sequence (Q86Y07 whole entry): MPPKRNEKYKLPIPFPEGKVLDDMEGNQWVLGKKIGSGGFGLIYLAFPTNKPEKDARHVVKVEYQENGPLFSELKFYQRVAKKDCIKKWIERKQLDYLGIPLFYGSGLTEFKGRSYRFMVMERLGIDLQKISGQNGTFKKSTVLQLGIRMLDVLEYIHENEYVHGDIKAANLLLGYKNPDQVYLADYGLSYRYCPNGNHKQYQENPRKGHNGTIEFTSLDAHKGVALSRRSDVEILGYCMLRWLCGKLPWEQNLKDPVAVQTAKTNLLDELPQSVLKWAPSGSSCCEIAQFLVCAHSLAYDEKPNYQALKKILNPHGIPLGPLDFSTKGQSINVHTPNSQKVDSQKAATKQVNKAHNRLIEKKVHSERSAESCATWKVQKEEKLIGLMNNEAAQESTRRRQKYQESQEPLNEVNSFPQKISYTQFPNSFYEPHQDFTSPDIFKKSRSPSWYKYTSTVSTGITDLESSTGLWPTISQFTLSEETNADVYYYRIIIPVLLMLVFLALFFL

[11] = target: Cyclin-dependent kinase 2 (Homo sapiens, UniProt P24941)
[12] = target: Mitogen-activated protein kinase 6 (Homo sapiens) (UniProt Q16659)
Mitogen-activated protein kinase 6 (Homo sapiens), sequence (Q16659 whole entry): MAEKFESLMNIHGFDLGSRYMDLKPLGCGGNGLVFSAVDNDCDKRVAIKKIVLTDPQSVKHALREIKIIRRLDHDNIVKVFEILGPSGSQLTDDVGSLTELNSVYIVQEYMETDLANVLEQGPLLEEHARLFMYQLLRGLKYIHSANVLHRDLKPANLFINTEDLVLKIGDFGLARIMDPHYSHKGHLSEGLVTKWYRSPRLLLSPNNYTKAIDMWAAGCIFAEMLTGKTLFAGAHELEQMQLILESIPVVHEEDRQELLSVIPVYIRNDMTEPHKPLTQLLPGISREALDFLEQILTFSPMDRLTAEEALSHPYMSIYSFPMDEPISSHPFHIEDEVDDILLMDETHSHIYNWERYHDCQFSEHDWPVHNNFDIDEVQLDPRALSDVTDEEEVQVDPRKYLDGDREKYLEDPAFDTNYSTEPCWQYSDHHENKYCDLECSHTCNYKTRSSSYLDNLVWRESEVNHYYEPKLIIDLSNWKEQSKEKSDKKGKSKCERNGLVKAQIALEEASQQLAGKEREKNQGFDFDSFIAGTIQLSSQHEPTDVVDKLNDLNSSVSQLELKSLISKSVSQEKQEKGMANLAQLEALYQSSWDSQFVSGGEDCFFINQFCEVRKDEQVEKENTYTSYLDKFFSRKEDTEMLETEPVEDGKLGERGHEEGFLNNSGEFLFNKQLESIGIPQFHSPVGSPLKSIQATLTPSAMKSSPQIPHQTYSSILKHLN

[13] = target: Cyclin-dependent kinase 16 (Homo sapiens) (UniProt Q00536)
[14] = target: Serine/threonine-protein kinase PAK 4 (Homo sapiens) (UniProt O96013)
Serine/threonine-protein kinase PAK 4 (Homo sapiens), sequence (O96013 whole entry, looked up): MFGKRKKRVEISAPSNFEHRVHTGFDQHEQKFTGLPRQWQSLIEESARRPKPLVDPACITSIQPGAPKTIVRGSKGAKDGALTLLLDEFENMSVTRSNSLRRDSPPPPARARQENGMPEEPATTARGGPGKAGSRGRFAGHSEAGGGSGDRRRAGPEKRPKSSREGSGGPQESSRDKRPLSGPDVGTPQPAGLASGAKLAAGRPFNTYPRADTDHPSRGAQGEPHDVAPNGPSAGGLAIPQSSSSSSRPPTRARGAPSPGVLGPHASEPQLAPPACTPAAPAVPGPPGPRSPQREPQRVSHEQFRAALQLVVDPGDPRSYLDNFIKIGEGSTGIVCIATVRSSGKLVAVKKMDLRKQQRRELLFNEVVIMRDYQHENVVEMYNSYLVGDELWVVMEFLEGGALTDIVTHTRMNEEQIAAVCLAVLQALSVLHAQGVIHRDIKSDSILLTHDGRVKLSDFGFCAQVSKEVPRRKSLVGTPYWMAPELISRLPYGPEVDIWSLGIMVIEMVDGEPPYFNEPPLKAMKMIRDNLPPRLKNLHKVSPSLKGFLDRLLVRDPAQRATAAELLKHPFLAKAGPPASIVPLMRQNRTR

[15] = target: Serine/threonine-protein kinase 25 (Homo sapiens) (UniProt O00506)
Serine/threonine-protein kinase 25 (Homo sapiens), sequence (O00506 whole entry, looked up, canonical isoform): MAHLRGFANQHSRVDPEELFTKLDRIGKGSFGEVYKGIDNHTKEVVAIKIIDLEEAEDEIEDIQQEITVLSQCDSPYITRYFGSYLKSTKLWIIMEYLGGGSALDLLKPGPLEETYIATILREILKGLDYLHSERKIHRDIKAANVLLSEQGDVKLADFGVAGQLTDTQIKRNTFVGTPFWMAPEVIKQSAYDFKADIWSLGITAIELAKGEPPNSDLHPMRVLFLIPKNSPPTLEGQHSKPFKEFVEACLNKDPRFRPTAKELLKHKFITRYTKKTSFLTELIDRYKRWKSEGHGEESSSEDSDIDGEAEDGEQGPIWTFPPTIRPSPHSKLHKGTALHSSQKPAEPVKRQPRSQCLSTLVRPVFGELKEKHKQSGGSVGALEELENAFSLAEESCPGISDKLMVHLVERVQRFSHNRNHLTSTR

[16] = target: Casein kinase I isoform gamma-2 (Homo sapiens) (UniProt P78368)
[17] = target: Casein kinase I isoform gamma-1 (Homo sapiens) (UniProt Q9HCP0)
Casein kinase I isoform gamma-1 (Homo sapiens), sequence (Q9HCP0 whole entry, looked up, canonical isoform): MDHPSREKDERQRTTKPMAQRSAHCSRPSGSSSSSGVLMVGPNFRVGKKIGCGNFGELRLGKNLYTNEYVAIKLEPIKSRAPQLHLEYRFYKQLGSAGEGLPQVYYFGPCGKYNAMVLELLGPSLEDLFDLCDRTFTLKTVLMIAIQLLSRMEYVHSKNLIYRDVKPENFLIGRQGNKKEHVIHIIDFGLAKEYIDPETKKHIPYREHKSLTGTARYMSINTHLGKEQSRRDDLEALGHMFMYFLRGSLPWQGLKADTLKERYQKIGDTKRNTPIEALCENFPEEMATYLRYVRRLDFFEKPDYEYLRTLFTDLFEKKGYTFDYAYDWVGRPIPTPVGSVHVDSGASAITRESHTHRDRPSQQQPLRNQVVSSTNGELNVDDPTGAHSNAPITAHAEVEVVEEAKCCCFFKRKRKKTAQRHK

| Compound | ΔTm [1] [°C] | ΔTm [2] [°C] | ΔTm [3] [°C] | ΔTm [4] [°C] | ΔTm [5] [°C] | ΔTm [6] [°C] | ΔTm [7] [°C] | ΔTm [8] [°C] | ΔTm [9] [°C] | ΔTm [10] [°C] | ΔTm [11] [°C] | ΔTm [12] [°C] | ΔTm [13] [°C] | ΔTm [14] [°C] | ΔTm [15] [°C] | ΔTm [16] [°C] | ΔTm [17] [°C] |
| --- | --- | --- | --- | --- | --- | --- | --- | --- | --- | --- | --- | --- | --- | --- | --- | --- | --- |
| Ic1cccc(CSc2nnc(-c3ccncc3)o2)c1 | 0.2 | -0.1 | 0.3 | -1.5 | -0.2 | 1.4 | -0.6 | -0.4 | 0.1 | -0.3 | -0.3 | -0.2 | -0.8 | -0.1 | -0.3 | 0.5 | 0.6 |
| O=C1NC(=O)C(c2c[nH]c3ccccc23)=C1c1c[nH]c2ccccc12 | 6.3 | 1.2 | 2.9 | 5.9 | 1.9 | 6.2 | 3.6 | 4.6 | 4 | 1 | 1.5 | 0.5 | 1.7 | 1.8 | 2 | 0.7 | 0.6 |
| NC(=O)c1ccc(-c2nc(-c3ccc4c(c3)OCCO4)c(-c3ccccn3)[nH]2)cc1 | 0.4 | 0.3 | -0.3 | -0.5 | 1.1 | 0.4 | -0.1 | -1.1 | -0.2 | 0.5 | 0.6 | -0.1 | -0.4 | 0.9 | 0 | 0.4 | 0.4 |
| N#C/C(=C\c1ccc(O)c(O)c1)C(=O)Nc1ccccc1 | 2.8 | 0 | 2.8 | 1.6 | 1.4 | 1.2 | 0.8 | 1.8 | 1.5 | 0.3 | 1.1 | 0.5 | -0.5 | -0.5 | 0.5 | 1.2 | 1 |
| O=c1cc(-c2ccc(O)cc2)oc2cc(O)cc(O)c12 | 4.6 | 0.2 | 7.3 | 3.7 | 1.4 | 4 | 2.7 | 2.4 | 3.8 | 0.6 | 2.3 | 0.5 | 1.2 | 0.3 | 4.9 | 0.7 | 1.4 |
| O=C(O)/C=C/c1cc(CO)ccc1CO | 2.2 | 0.2 | 0.6 | 0.6 | 1 | 0.5 | 0.3 | 0 | 1.6 | 0.3 | 0.9 | 0.3 | -0.2 | 0.1 | 0.5 | 0.4 | 0.7 |

More lines, now with the values ahead:

| ΔTm [1] [°C] | ΔTm [2] [°C] | ΔTm [3] [°C] | ΔTm [4] [°C] | ΔTm [5] [°C] | ΔTm [6] [°C] | ΔTm [7] [°C] | ΔTm [8] [°C] | ΔTm [9] [°C] | ΔTm [10] [°C] | ΔTm [11] [°C] | ΔTm [12] [°C] | ΔTm [13] [°C] | ΔTm [14] [°C] | ΔTm [15] [°C] | ΔTm [16] [°C] | ΔTm [17] [°C] | Compound |
| --- | --- | --- | --- | --- | --- | --- | --- | --- | --- | --- | --- | --- | --- | --- | --- | --- | --- |
| 1 | -0.3 | 0 | 0.1 | 0.9 | -0.4 | 1 | 0.4 | 0.2 | 1.2 | 0.9 | -0.3 | -0.5 | -0.6 | 0.1 | 1.1 | 1.4 | CC(C)n1cnc2c(NCc3ccccc3)nc(NCCCO)nc21 |
| 1.6 | 0.3 | 3.3 | 0.7 | 0.6 | 7.4 | 1.5 | 6.9 | 0.9 | 0.4 | 0.1 | -0.1 | -0.9 | 0.2 | 1.4 | 0.6 | 0.8 | COc1cc2ncnc(Nc3cccc(Br)c3)c2cc1OC |
| 1.4 | 0.4 | -0.1 | -1.1 | 0.7 | 3.3 | 6 | 2.9 | 0.2 | 2.7 | 4.5 | 0.1 | 0.8 | 4.7 | 3.4 | 3.8 | 6.1 | CC(C)N(CCO)c1nc(Nc2cccc(Cl)c2)c2ncn(C(C)C)c2n1 |
| 4.8 | 0.1 | 10 | 3.6 | 2.3 | 2.8 | 3.5 | 2.2 | 3.6 | 2.6 | 2.6 | 0.5 | 0.1 | 1.5 | 4.8 | 2.5 | 1.7 | O=C1c2ccccc2-c2n[nH]c3cccc1c23 |
| 0.4 | 0.1 | 0 | -1.3 | 0.3 | 0.5 | 0.9 | 0 | 0.1 | 0.6 | 1.2 | 0 | -0.2 | 0.5 | 0.3 | 0.7 | 0.5 | CC(C)n1cnc2c(NCc3ccccc3O)nc(NCCCO)nc21 |
| 1.2 | 0.1 | 6.2 | -0.2 | -0.5 | 0.9 | 3.6 | 0.8 | 0.4 | 0.6 | 1 | 0.1 | -0.5 | 0.9 | 2.4 | 0.8 | 1.2 | CN(C)c1ccc(CC2C(=O)Nc3ccccc32)cc1 (stereo not drawn) |
| 0.5 | 1.1 | 1.5 | 0.2 | 2.1 | 1 | 0.2 | 0.4 | 0.4 | 0.4 | 0.3 | 1 | 0.3 | 1.1 | 0.3 | 0.5 | 0.7 | Cc1cc2ncc(-c3ccccc3)nc2cc1C |
| 3.2 | 0 | 7.7 | 3.4 | 3.3 | 6.1 | 0.9 | 5.7 | 2.6 | 1.2 | 1.4 | 0.6 | -0.4 | 0.6 | 2.5 | 0.4 | 0.3 | Nc1cc2ncnc(Nc3cccc(Br)c3)c2cc1N |
